The source of these data is ChEMBL document CHEMBL4177675, “The synthesis of 2,3,6-trisubstituted 1-oxo-1,2-dihydroisoquinolines as potent CRTh2 antagonists” (Bioorg Med Chem Lett, 2017).

Each structure is given as a SMILES string.

The first test has as its target T1, Prostaglandin D2 receptor 2 (Homo sapiens, UniProt Q9Y5Y4).
T1 sequence (Q9Y5Y4 whole entry): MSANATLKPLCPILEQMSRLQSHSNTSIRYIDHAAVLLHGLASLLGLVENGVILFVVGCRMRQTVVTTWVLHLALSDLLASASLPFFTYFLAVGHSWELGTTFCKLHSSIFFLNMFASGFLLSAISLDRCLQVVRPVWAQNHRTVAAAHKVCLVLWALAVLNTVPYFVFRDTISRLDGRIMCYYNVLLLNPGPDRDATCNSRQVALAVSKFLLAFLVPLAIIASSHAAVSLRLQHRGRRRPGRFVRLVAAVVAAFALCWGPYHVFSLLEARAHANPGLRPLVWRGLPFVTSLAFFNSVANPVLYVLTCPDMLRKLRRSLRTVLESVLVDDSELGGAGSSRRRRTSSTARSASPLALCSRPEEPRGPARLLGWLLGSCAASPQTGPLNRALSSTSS
Nature of the test: Binding affinity to human CRTh2 assessed by competitive binding assay.
As for `O=C(O)CCCCc1cc2cc(C(=O)Nc3noc(C4Cc5ccccc5C4)n3)ccc2c(=O)n1-c1ccc(F)cc1`, the Ki came out at 22 nM. As for `CC(c1ccc(F)cc1)c1nc(NC(=O)c2ccc3c(=O)n(-c4ccc(F)cc4)c(CCCCC(=O)O)cc3c2)no1` (stereo not drawn), the Ki was found to be 13 nM. Turning to `COc1ccc(-n2c(CCCCC(=O)O)cc3cc(C(=O)N[C@H](C)c4ccc(F)cc4)ccc3c2=O)cc1`, the affinity corresponds to a Ki of 8.5 nM.

On to `C[C@@H]1CN(c2ccc(F)cc2)CCN1C(=O)c1ccc2c(=O)n(-c3ccc(F)cc3)c(CCCCC(=O)O)cc2c1`, for which the affinity corresponds to a Ki of 24 nM.

Take `C[C@@H](NC(=O)c1ccc2c(=O)n(-c3ccc(C#N)cc3)c(CCCCC(=O)O)cc2c1)c1ccc(F)cc1`: affinity was put at a Ki of 9.2 nM. For `C[C@@H](NC(=O)c1ccc2c(=O)n(-c3ccc(F)cc3)c(CCCCC(=O)O)cc2c1)c1ccc(F)cc1`, the Ki was found to be 5.9 nM.

Take `O=C(O)CCCCc1cc2cc(C(=O)Nc3noc(Cc4ccc(F)cc4)n3)ccc2c(=O)n1-c1ccc(F)cc1`: the affinity corresponds to a Ki of 7.8 nM. `CC1(c2nc3ccc(F)cc3o2)CC(NC(=O)c2ccc3c(=O)n(-c4ccc(F)cc4)c(CCCCC(=O)O)cc3c2)=NO1` (stereo not drawn) returned an inhibition constant (Ki) of 26 nM. Compound `C[C@@H](NC(=O)c1ccc2c(=O)[nH]c(CCCCC(=O)O)cc2c1)c1ccc(F)cc1` gave a Ki of 703 nM. `O=C(O)CCCCc1cc2cc(C(=O)Nc3cc(Cc4ccc(F)cc4)on3)ccc2c(=O)n1-c1ccc(F)cc1` came in with a Ki of 11 nM.

Another test deals with T1, Prostaglandin D2 receptor 2. Nature of the test: Antagonist activity at CRTh2 (unknown origin) assessed as inhibition of CD11b activation. Type of test: functional.
Take `C[C@@H](NC(=O)c1ccc2c(=O)n(-c3ccc(F)cc3)c(CCCCC(=O)O)cc2c1)c1ccc(F)cc1`: the Ki came to 0.23 nM. `O=C(O)CCCCc1cc2cc(C(=O)N[C@@H]3CCCc4ccccc43)ccc2c(=O)n1-c1ccc(F)cc1`: the Ki came to 0.4 nM. As to `O=C(O)CCCCc1cc2cc(C(=O)N[C@@H]3CCCc4cc(F)ccc43)ccc2c(=O)n1-c1ccc(F)cc1`, the Ki worked out at 1.31 nM.
